# Test results as given in patent US20230128688A1, “DIRECTED CONJUGATION TECHNOLOGIES” (KLEO PHARMACEUTICALS, INC., priority 2019, published 2023).
# Starred links: 1 amine or outer side, 2 acyl side, 3 side chain; linkers in the order of their positions; H or OH if unused. Positions of bridges follow the written chain, without caps; N, C: chain ends. Non-standard residues stand in square brackets, D forms with d. Residues, ends and D or L forms follow the SMILES beside them. Groups on a side chain read outwards from the residue. *: point of attachment. X2 = O=C(CCOCCOCCOCCOCCOCCOCCNC(=S)Nc1ccc2c(c1)C(=O)OC21c2ccc(O)cc2Oc2cc(O)ccc21)Oc1c(F)cc(CN*)cc1F; FITC = O=C1OC2(c3ccc(O)cc3Oc3cc(O)ccc32)c2ccc(NC(=S)*)cc21; X6 = O=C([C@H](Cc1cccc(O[*:3])c1)N[*:1])[*:2]; PEG8 = NCCOCCOCCOCCOCCOCCOCCOCCOCCC(=O)O; PEG4 = NCCOCCOCCOCCOCCC(=O)O
# Tests used:
# daratumumab = assay: Absorbance based DAR analysis of FITC conjugation to antibody; assay type: biochemical
# Description: (§1) In some embodiments, reaction partners, e.g., compounds of formula R-I or salts thereof ere dissolved in DMSO to 5 mM stock solution.
# (§2) In some embodiments, reactions are set up with 300 micrograms of antibody. In some embodiments, various conditions, including various buffers, reagent equivalents, reaction time, reaction temperature and reaction concentrations can be utilized.
# As an example, one reaction is 300 microliter reaction with 1 mg/mL of antibody in PBS. Peptide I-45 (1 microliter of 5 mM stock in DMSO, 2.5 molar equivalents relative to daratumumab) was diluted in 284 microliters of PBS buffer (10 mM phosphate, 150 mM sodium chloride, pH 7.4), then 15 microliters of daratumumab (20 mg/mL stock) was added to the reaction mixture followed by incubation at room temperature in the dark. After 4 h reaction buffer was exchanged using Amicon Ultra centrifuge filter (30 KDa MWCO, 0.5 mL volume). First, glycine buffer (100 mM, pH 2.1) was used for buffer exchange to ensure dissociation of target binding moieties after reaction. Then, phosphate buffer saline (pH 7.4) was used for further buffer exchange and storage.
# In another example, a reaction is 300 microliter reaction with 1 mg/mL of antibody in borate buffer. Peptide I-44 (1.2 microliter of 5 mM stock in DMSO, 3.0 molar equivalents relative to daratumumab) was diluted in 284 microliters of Borate buffer (100 mM borate, pH 8.3), then 15 microliters of daratumumab (20 mg/mL stock) was added to the reaction mixture followed by incubation at room temperature in the dark. After 20 h reaction buffer was exchanged using Amicon Ultra centrifuge filter (30 KDa MWCO, 0.5 mL volume). First, glycine buffer (100 mM, pH 2.1) was used for buffer exchange to ensure dissociation of target binding moieties after reaction. Then, phosphate buffer saline (10 mM phosphate, 150 mM sodium chloride, pH 7.4) was used for further buffer exchange and storage.
# (§3) In some embodiments, a useful technology is absorbance based DAR analysis. DAR (ratio of moieties of interest and target agent moieties (e.g., antibody agent moieties) was calculated for various antibody conjugates, e.g., in various reagent screening/assessment methods. Various agents comprising target binding moieties were assessed for conjugation efficiency as reaction partners with targets, e.g. protein agents such as antibody agents, compared to reagents with the same reactive groups but without target binding moieties. In various ratio determination ‘Drug’/moiety of interest is fluorescein isothiocyanate (FITC) dye conjugated to target agents, e.g., antibody agents. DAR molar ratio is defined as a ratio of moles of drug/moiety of interest to moles of target agent/antibody. Molarity is calculated from absorbance of FITC (A485) and antibody (A280) of conjugated product, and extinction coefficients of FITC and antibody using Beer-Lambert law. Correction coefficient 0.35 was used to correct for absorbance of FITC at 280 nm. Biotek Synergy H1 microplate reader and Take3 microvolume plate were used for absorbance measurements. Concentration of antibody was at least 3 mg/mL for optimal signal-to-noise in the readings. Certain target binding moieties that can provide higher DAR compared to equivalent controls (absence of target binding moieties) were selected as hits for further analysis. Certain assessment data were provided below as examples.
# Cetuximab = assay: as above; assay type: biochemical; settings: 2.5 M eq reagent, phosphate buffer saline pH 7.4, 4 h, 25 C; Drug = FITC
# Description: as §1, §2, §3
# Reactions were set up with antibodies using 2.5 M eq of indicated reagent in phosphate buffer saline pH 7.4 for 4 h at 25° C. DAR is Drug to antibody ratio, in this case “Drug” is FITC and DAR is measured using FITC absorbance.
# [1] = 2.5 M eq reagent, phosphate buffer saline pH 7.4, 4 h, 25 C, Drug = FITC
# [2] = 2.5 M eq, 25 C, 4 h, PBS pH 7.4
# [3] = 5 M eq reagent, phosphate buffer saline pH 7.4, 4 h, 25 C, Drug = FITC
# [4] = antibody 1 mg/mL, 2.5 M eq, 25 C, 20 h, PBS pH 7.4
# [5] = antibody 1 mg/mL, 3 M eq, 25 C, 20 h, PBS pH 7.4
# [6] = antibody 1 mg/mL, 3.5 M eq, 25 C, 20 h, PBS pH 7.4
# [7] = antibody 4 mg/mL, 2.5 M eq, 25 C, 20 h, PBS pH 7.4
# [8] = antibody 4 mg/mL, 3 M eq, 25 C, 20 h, PBS pH 7.4
# [9] = antibody 4 mg/mL, 3.5 M eq, 25 C, 20 h, PBS pH 7.4
# [10] = 30 M eq reagent, borate buffer pH 8.3, 20 h, 37 C, Drug = FITC
# [11] = 10 M eq reagent, Bicarbonate buffer pH 8.3, 2 h, 37 C, Drug = FITC
smiles,measurement,setting,value
CCNC(=O)c1ccc(OC(=O)CCOCCOCCOCCOCCOCCOCCNC(=S)Nc2ccc3c(c2)C(=O)OC32c3ccc(O)cc3Oc3cc(O)ccc32)c(F)c1 [Compound I-18],DAR,daratumumab; [1],0.05
same,DAR Daratumumab,daratumumab; [1],0.05
same,DAR,"daratumumab; 2.5 M eq, 25 C, 4 h, Acetate pH 6.2",0.08
same,DAR,"daratumumab; 2.5 M eq, 25 C, 4 h, Borate pH 8.3",0.35
same,DAR,daratumumab; [2],0.05
same,DAR,daratumumab; [3],0.15
same,DAR,"daratumumab; 5 M eq, 25 C, 4 h, Acetate pH 6.2",0.14
same,DAR,"daratumumab; 5 M eq, 25 C, 4 h, Borate pH 8.3",0.42
same,DAR,"daratumumab; 5 M eq, 25 C, 4 h, PBS pH 7.4",0.08
same,DAR,"daratumumab; 10 M eq, 25 C, 2 h, Acetate pH 6.2",0.12
same,DAR,"daratumumab; 10 M eq, 25 C, 4 h, Borate pH 8.3",0.77
same,DAR,"daratumumab; 10 M eq, 25 C, 4 h, PBS pH 7.4",0.15
same,DAR Cetuximab,Cetuximab,0.04
CC(=O)NCC(=O)N[C@@H](CO)C(=O)N[C@@H](Cc1ccc(O)cc1)C(=O)N[C@@H](Cc1c[nH]c2ccccc12)C(=O)N[C@@H](Cc1ccc(O)cc1)C(=O)N[C@@H](CC(=O)O)C(=O)N[C@H](C(=O)N[C@@H](Cc1c[nH]c2ccccc12)C(=O)N[C@@H](Cc1ccccc1)C(=O)NCCOCCOCCOCCOCCC(=O)NCc1cc(F)c(OC(=O)CCOCCOCCOCCOCCOCCOCCNC(=S)Nc2ccc3c(c2)C(=O)OC32c3ccc(O)cc3Oc3cc(O)ccc32)c(F)c1)C(C)C [Compound I-45] (Ac-GSYWYDVWF[PEG4]-X2),DAR,daratumumab; [1],0.64
same,DAR Daratumumab,daratumumab; [1],0.64
same,DAR,daratumumab; [4],0.90
same,Fold (DAR I-45 over I-9),daratumumab; [4],4.78
same,DAR,daratumumab; [5],0.96
same,Fold (DAR I-45 over I-9),daratumumab; [5],5.31
same,DAR,daratumumab; [6],1.06
same,Fold (DAR I-45 over I-9),daratumumab; [6],4.39
same,DAR,daratumumab; [7],1.04
same,Fold (DAR I-45 over I-9),daratumumab; [7],2.81
same,DAR,daratumumab; [8],1.09
same,Fold (DAR I-45 over I-9),daratumumab; [8],2.23
same,DAR,daratumumab; [9],1.06
same,Fold (DAR I-45 over I-9),daratumumab; [9],2.40
same,FITC DAR,daratumumab; sample (a) of FIG. 12 / FIG. 13,0.43
same,DAR Cetuximab,Cetuximab,0.70
CC(C)C[C@@H]1NC(=O)[C@H](Cc2cnc[nH]2)NC(=O)[C@H](Cc2c[nH]c3ccccc23)NC(=O)[C@H](C)NC(=O)[C@@H](NC(=O)[C@@H](N)CC(=O)O)CSSC[C@@H](C(=O)N[C@H](C(=O)O)[C@@H](C)O)NC(=O)[C@H](Cc2c[nH]c3ccccc23)NC(=O)[C@H](C(C)C)NC(=O)[C@H](CC(C)C)NC(=O)[C@H](CCC(=O)Nc2cc(OC(=O)CCOCCOCCOCCOCCOCCOCCOCCOCCNC(=S)Nc3ccc4c(c3)C(=O)OC43c4ccc(O)cc4Oc4cc(O)ccc43)ccc2F)NC(=O)CNC1=O [Compound I-25],DAR,daratumumab; [3],0.10
same,DAR,daratumumab; [10],1.25
CC(=O)NCc1cc(F)c(OC(=O)CCOCCOCCOCCOCCOCCOCCNC(=S)Nc2ccc3c(c2)C(=O)OC32c3ccc(O)cc3Oc3cc(O)ccc32)c(F)c1 [Compound I-9],DAR,daratumumab; [1],0.06
same,DAR Daratumumab,daratumumab; [1],0.06
same,DAR,daratumumab; [11],1.10
same,DAR,daratumumab; [4],0.19
same,DAR,daratumumab; [5],0.18
same,DAR,daratumumab; [6],0.24
same,DAR,daratumumab; [7],0.37
same,DAR,daratumumab; [8],0.49
same,DAR,daratumumab; [9],0.44
same,DAR Cetuximab,Cetuximab,0.03
CC(=O)N[C@@H](CC(=O)O)C(=O)N[C@H]1CSSC[C@@H](C(=O)N[C@H](C(=O)O)[C@@H](C)O)NC(=O)[C@H](Cc2c[nH]c3ccccc23)NC(=O)[C@H](C(C)C)NC(=O)[C@H](CC(C)C)NC(=O)[C@H](CCC(=O)O)NC(=O)CNC(=O)[C@H](CC(C)C)NC(=O)[C@H](CC(=O)NCc2ccc(OC(=O)CCOCCOCCOCCOCCOCCOCCNC(=S)Nc3ccc4c(c3)C(=O)OC43c4ccc(O)cc4Oc4cc(O)ccc43)cc2)NC(=O)[C@H](Cc2c[nH]c3ccccc23)NC(=O)[C@H](C)NC1=O [Compound I-43],DAR,daratumumab; [1],0.26
CC(=O)NCc1ccc(OC(=O)CCOCCOCCOCCOCCOCCOCCNC(=S)Nc2ccc3c(c2)C(=O)OC32c3ccc(O)cc3Oc3cc(O)ccc32)c(F)c1 [Compound I-10],DAR,daratumumab; [1],0.08
same,DAR,daratumumab; [2],0.08
same,DAR,"daratumumab; 2.5 M eq, 25 C, 20 h, Borate pH 8.2",0.21
same,DAR,"daratumumab; 2.5 M eq, 25 C, 20 h, PBS pH 7.4",0.07
same,DAR,"daratumumab; 2.5 M eq, 25 C, 20 h, PBS pH 7.8",0.15
same,DAR,"daratumumab; 2.5 M eq, 25 C, 20 h, PBS pH 8.0",0.06
same,DAR,"daratumumab; 2.5 M eq, 25 C, 20 h, PBS pH 8.2",0.03
same,DAR,"daratumumab; 2.5 M eq, 30 C, 20 h, PBS pH 7.4",0.05
same,DAR,"daratumumab; 2.5 M eq, 37 C, 20 h, PBS pH 7.4",0.17
same,DAR,daratumumab; [11],0.14
same,DAR,daratumumab; [10],0.98
CC(=O)N[C@@H](CC(=O)O)C(=O)N[C@H]1CSSC[C@@H](C(=O)N[C@H](C(=O)O)C(C)C)NC(=O)[C@H](Cc2c[nH]c3ccccc23)NC(=O)[C@H](C(C)C)NC(=O)[C@H](CC(C)C)NC(=O)[C@H](CCC(=O)O)NC(=O)CNC(=O)[C@H](CC(C)C)NC(=O)[C@H](Cc2cccc(OC(=O)CCOCCOCCOCCOCCOCCOCCOCCOCCNC(=S)Nc3ccc4c(c3)C(=O)OC43c4ccc(O)cc4Oc4cc(O)ccc43)c2)NC(=O)[C@H](Cc2c[nH]c3ccccc23)NC(=O)[C@H](C)NC1=O [Compound I-46] (Ac-DCAW[X6]([PEG8-FITC])LGELVWCV-OH; disulfide 2-12),DAR,daratumumab; [3],0.15
same,DAR,daratumumab; [10],0.43
N=C(N)NCCC[C@H](NC(=O)CCOCCOCCOCCOCCOCCOCCOCCOCCNC(=O)c1ccc(OC(=O)CCOCCOCCOCCOCCOCCOCCNC(=S)Nc2ccc3c(c2)C(=O)OC32c3ccc(O)cc3Oc3cc(O)ccc32)cc1)C(=O)N[C@@H](CCCNC(=N)N)C(=O)NCC(=O)N[C@@H](Cc1c[nH]c2ccccc12)C(=O)O [Compound I-21],DAR,"daratumumab; 10 M eq reagent, Bicarbonate buffer pH 8.3, 20 h, 25 C, Drug = FITC",0.18
